Laboratory results taken from patent US20080269223A1, “Mouth Dissolvable and Meltable, and Water Dispersable Delivery Formulation” (priority 2004, published 2008).
Like-named read-outs stand apart in the source and are kept apart here. Each block holds one molecule with its values, some of them ahead of it.

Columns and labels:
[1] = cited from earlier work
human plasma protein = conditions: cited from earlier work
[2] = Dissolution time of mannitol forms in water; assay type: physicochemical; conditions: ratio 1:30 w/w with respect to water, 20° C.
Description: The filler is mannitol, preferably a form of spray dried mannitol. […] Accordingly, α form of spray dried mannitol is most preferred in accordance to the present invention. The α-form of mannitol has mean particle size diameter of about 150 micron and Haussner number of about 1.16, having dissolution time in water with a ratio of 1:30 with respect to water in w/w, not more than 5 seconds at 20° C. […] When the dissolution time of the α-form of spray dried mannitol is compared with the standard and granulated mannitol, it gave following gradation:—

Compound: Nc1nnc(-c2cccc(Cl)c2Cl)c(N)n1 [Lamotrigine, 3,5-diamino-b-[2,3-dichlorophenyl]-1,2,4-triazine]
- average half life ([1]; Lamotrigine alone): approximately 24 hours
- effect of food on bioavailability ([1]; in vivo): not affected by food
- half life ([1]; used concurrently with phenytoin): approximately 7.2 hours
- half life ([1]; with Valproic Acid): approximately 59 hours
- displacement of other anti-epileptic drugs from protein binding sites (human plasma protein; carbamazepine, phenytoin, phenobarbitol): does not displace
- bound to human plasma protein (human plasma protein): approximately 55%

- dissolution time in water [2]: 100 s
Compound: OC[C@@H](O)[C@@H](O)[C@H](O)[C@H](O)CO [granulated mannitol]

- dissolution time in water [2]: 35 s
Compound: OC[C@@H](O)[C@@H](O)[C@H](O)[C@H](O)CO [standard mannitol]

- dissolution time in water [2]: 5 s
- dissolution time in water ([2]; listed as α-form of mannitol): not more than 5 seconds
Compound: OCC(O)C(O)C(O)C(O)CO (stereo not drawn) [Spray dried α-mannitol, 1,2,3,4,5,6-hexanehexol]
